Results on seven molecules are retold here after US7824850B2, “Methods of protein destabilization and uses thereof” (Aurora Biosciences Corporation, priority 2000, dated 2010).

pIC50: −log10 of the molar value. Where a SMILES comes first, the peptide text is derived from it. [ ]: non-standard residue; d: D form. The star is where a group is joined. Nle = CCCC[C@H](N)C(=O)O; Cbz = O=C(OCc1ccccc1)*; CH2F = FC*

In test [1] the test system is proteasome. The test can be described thus: In vitro degradation of 2XUb-Bla in chase lysate with inhibitors. Conditions: 20 minutes at 37° C.
Test [2] has as its target T1, proteasome (Homo sapiens, UniProt P28074).
T1 sequence (P28074 60-263): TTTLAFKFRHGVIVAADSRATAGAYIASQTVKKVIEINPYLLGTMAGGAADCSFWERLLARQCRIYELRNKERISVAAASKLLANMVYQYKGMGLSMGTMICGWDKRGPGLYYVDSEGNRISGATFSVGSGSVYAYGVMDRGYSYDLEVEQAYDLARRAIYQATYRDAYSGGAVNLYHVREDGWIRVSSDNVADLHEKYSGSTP
T1 sequence (P28072 35-239 partner): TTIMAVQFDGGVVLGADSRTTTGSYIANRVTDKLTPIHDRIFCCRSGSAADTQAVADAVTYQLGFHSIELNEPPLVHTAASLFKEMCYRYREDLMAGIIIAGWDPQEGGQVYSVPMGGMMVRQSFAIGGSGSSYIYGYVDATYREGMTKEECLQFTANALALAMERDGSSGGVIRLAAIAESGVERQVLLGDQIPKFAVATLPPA
T1 sequence (Q99436 44-277 partner): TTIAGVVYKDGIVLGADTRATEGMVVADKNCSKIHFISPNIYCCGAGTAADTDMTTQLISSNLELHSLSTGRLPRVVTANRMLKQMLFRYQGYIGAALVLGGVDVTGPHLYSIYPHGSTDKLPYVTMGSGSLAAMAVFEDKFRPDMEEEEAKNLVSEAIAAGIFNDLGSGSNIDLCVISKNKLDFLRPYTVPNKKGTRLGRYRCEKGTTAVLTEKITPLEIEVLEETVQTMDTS
Conditions: read-out: IC50 inhibition of decay of β-lactamase activity; Jurkat cells expressing 2XUb-Bla, 30 minutes preincubation, cycloheximide 1 hour.
Method: The cells were loaded with CCF2-AM to measure β-lactamase activity as described above.
After 1 hour at 37° C., the cells were cooled to room temperature and then loaded with 1 μM CCF2-AM and β-lactamase activity quantified using a CytoFluor plate reader. The background-subtracted emission values at 460 nm and 530 nm were expressed as a 460/530 ratio and dose-response curves were plotted.

The conditions of test [3]: overnight treatment of Jurkat cells; cited from earlier work.
Test [4] concerns proteasome. The test can be described thus: TNT in vitro synthesis of multiUb-Bla fusions with or without proteasome inhibitor. The conditions noted are these: 50 μM; β-lactamase fusions containing 2, 3 or 4 copies of ubiquitinG76V.
From the text: S-Labeled multimerized destabilization domain-β-lactamase fusion protein molecules were produced using a coupled in vitro transcription/translation system based on a rabbit reticulocyte lysate (TNT T7 Quick; Promega).
Another test deals with group II caspases. The test can be described thus: Caspase activity assay in Jurkat clones expressing 2XUb-DEVD-Bla or 2XUb-DEVA-Bla (CCF2-AM, 460/530 ratio). Type of test: cell-based, human.
The test system of a further test is HRV14 2A protease. The experiment in a line: HRV 2A protease cell-based assay, Jurkat clone expressing 3XUb-HRV14-Bla. Also on record: species or system human rhinovirus 14. Conditions: compound 1 μM, 4 hours, cycloheximide 30 minutes. Here is the method: (§1) To assay HRV 2A protease activity, the selected Jurkat stable cell clones were treated for 16 hours with […] clavulanate to inactivate pre-existing cleaved and uncleaved HRV 2A-Bla fusion protein. Cells were then washed twice with PBS, resuspended at 100,000 cells/well in 100 μl RPMI+10% FBS in 96-well plates. The cells were incubated at 37° C. for 4 hours in the presence or absence of an inhibitor of the 2A protease. Cells were treated with 100 μg/ml cycloheximide for 30 minutes at 37° C., loaded with CCF2-AM for 2 hours at room temperature and read on the CytoFluor plate reader as described in Example 8. Inhibitor compounds, radicicol and geldanamycin, were used for the validation of the HRV protease cell-based assay. […] Compounds were tested at 1 μM for their ability to inhibit the HRV 2A protease cell-based assay using clones expressing HRV16 and HRV14 2A protease reporters.

A further test concerns HRV16 2A protease. The experiment in a line: HRV 2A protease cell-based assay, Jurkat clone expressing 3XUb-HRV16-Bla. Also on record: species or system human rhinovirus 16. Conditions: compound 1 μM, 4 hours, cycloheximide 30 minutes. Here is the method: as §1
A further test concerns the target T2, β-lactamase (Escherichia coli, UniProt P62593).
T2 construct: wild-type (cleavable) ubiquitin (N, cleaved yes); expressed in transfected cells; host or cells: Jurkat
The experiment in a line: Control: β-lactamase activity in Jurkat cells expressing wild-type β-lactamase. Type of test: cell-based. Conditions: data not shown.

T2 sequence (P62593 24-286 limits assumed): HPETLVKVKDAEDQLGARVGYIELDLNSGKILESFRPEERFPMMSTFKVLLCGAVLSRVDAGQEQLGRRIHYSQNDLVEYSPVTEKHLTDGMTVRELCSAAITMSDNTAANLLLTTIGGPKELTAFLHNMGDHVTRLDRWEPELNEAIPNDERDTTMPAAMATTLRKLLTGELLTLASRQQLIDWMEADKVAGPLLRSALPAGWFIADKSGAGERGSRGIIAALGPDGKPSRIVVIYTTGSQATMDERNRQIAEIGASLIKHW

Consider `CCCC[C@@H](C=O)NC(=O)[C@H](CC(C)C)NC(=O)[C@H](CC(C)C)NC(C)=O` [Ac-LLN] (Ac-Leu-Leu-[Nle]-aldehyde), for which the “effect on degradation of 2XUb-Bla in vitro” value in the test on proteasome [1] (50 μM) was “stabilized the 2XUb-Bla fusion protein”. For the same molecule, the negative-log IC50 (pIC50) (commonly the IC50 on a negative log10 scale, so that one unit is a factor of ten) at proteasome [2] was 4.89.

In the case of `O=C(O)[C@H]1/C(=C/CO)O[C@@H]2CC(=O)N21` [Clavulanate, clavulanate], the “effect on β-lactamase levels” value in test [3] is reported as “reduces β-lactamase levels to background”.

`CC(C)C[C@@H](C=O)NC(=O)[C@H](CC(C)C)NC(=O)[C@H](CC(C)C)NC(=O)OCc1ccccc1` [MG132] (Cbz-Leu-Leu-Leu-aldehyde): in the test with proteasome [4], the “effect on amount of fusion protein synthesized” value is reported as “dramatic increase in the amount of fusion protein synthesized”.

Consider `COC(=O)C[C@H](NC(=O)[C@H](C)NC(=O)[C@@H](NC(=O)OCc1ccccc1)C(C)C)C(=O)CF` [Z-VAD-fmk] (Cbz-Val-Ala-Asp(OMe)-CH2F), for which, in the test on group II caspases (10 μM coincident with anti-Fas addition), the “effect on stabilization of DEVD-Bla reporters” value is reported as “blocked the stabilization of DEVD-Bla reporters”. On group II caspases (Jurkat cells expressing 2XUb-DEVD-Bla, 50 ng/ml anti-Fas IgM, read-out: IC50 inhibition of anti-Fas induced caspase activity), the pIC50 is 5.30.

Regarding `COC1=C2C[C@@H](C)C[C@H](OC)[C@H](O)[C@@H](C)/C=C(\C)[C@H](OC(N)=O)[C@@H](OC)/C=C\C=C(/C)C(=O)NC(=CC1=O)C2=O` [geldanamycin], the 460/530 nm ratio was determined as 0.153 in the test with HRV14 2A protease and 0.239 with HRV16 2A protease.

For `CC(=O)N[C@@H](CSC(=O)[C@]1([C@@H](O)C(C)C)NC(=O)[C@H](C)[C@@H]1O)C(=O)O` [lactacystin], the “effect on degradation of 2XUb-Bla in vitro” value in the test with proteasome [1] (10 μM) is listed as “stabilized the 2XUb-Bla fusion protein”.

As for `C[C@@H]1C[C@H]2O[C@@H]2/C=C\C=C\C(=O)Cc2c(Cl)c(O)cc(O)c2C(=O)O1` [radicicol], the 460/530 nm ratio in the test on HRV14 2A protease was determined as 0.152; in the test with HRV16 2A protease, 0.229. Further, at β-lactamase, the “inhibition of β-lactamase activity (control)” value was “did not inhibit β-lactamase activity”.
